Measured values taken from patent publication US20220386606A1, “SPECIFICALLY SUBSTITUTED 3-PHENYL-5-SPIROCYCLOPENTYL-3-PYRROLIN-2-ONES AND THEIR USE AS HERBICIDES” (Bayer Aktiengesellschaft, priority 2019, published 2022).

What was measured:
DIGSA [1] = experiment: Post-emergence herbicidal action against DIGSA; assay type: in vivo, Digitaria sanguinalis; settings: 80 g/ha, visual assessment about 3 weeks after treatment vs untreated controls
Summary of the method: (§1)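 Plants at the one-leaf stage receive a foliar spray of the formulated compound, with a 600 to 800 l/ha water rate and 0.2% wetting agent. Percent activity is judged by eye after roughly 3 weeks in the greenhouse.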

DIGSA [2] = experiment: Pre-emergence herbicidal action against DIGSA; assay type: in vivo, Digitaria sanguinalis; settings: 320 g/ha, scored visually after 3 weeks vs untreated controls
Summary of the method: (§2)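 Pots of sandy loam with covered seeds receive a surface application of compound (WP or EC; aqueous, 600 to 800 L/ha, 0.2% wetting agent) before emergence. Under good greenhouse growth conditions, percent damage is judged by eye at 3 weeks against untreated controls.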

ABUTH = experiment: Post-emergence herbicidal action against ABUTH; assay type: in vivo, Abutylon threophrasti; settings: 80 g/ha, visual assessment about 3 weeks after treatment vs untreated controls
Summary of the method: as §1

POLCO = experiment: Pre-emergence herbicidal action against POLCO; assay type: in vivo, Polygonum convolvulus; settings: 320 g/ha
Summary of the method: as §2

ALOMY [3] = experiment: Pre-emergence herbicidal action against ALOMY; assay type: in vivo, Alopecurus myosuroides; settings: 320 g/ha, scored visually after 3 weeks vs untreated controls
Summary of the method: as §2

ECHCG [4] = experiment: Post-emergence herbicidal action against ECHCG; assay type: in vivo, Echinochloa crus-galli; settings: 80 g/ha, visual assessment about 3 weeks after treatment vs untreated controls
Summary of the method: as §1

AVEFA = experiment: Pre-emergence herbicidal action against AVEFA; assay type: in vivo, Avena fatua; settings: 320 g/ha, scored visually after 3 weeks vs untreated controls
Summary of the method: as §2

VIOTR = experiment: Pre-emergence herbicidal action against VIOTR; assay type: in vivo, Viola tricolor; settings: 320 g/ha
Summary of the method: as §2

AMARE = experiment: Pre-emergence herbicidal action against AMARE; assay type: in vivo, Amaranthus retroflexus; settings: 320 g/ha
Summary of the method: as §2

ALOMY [5] = experiment: Post-emergence herbicidal action against ALOMY; assay type: in vivo, Alopecurus myosuroides; settings: 80 g/ha, visual assessment after about 3 weeks
Summary of the method: as §1

ECHCG [6] = experiment: Pre-emergence herbicidal action against ECHCG; assay type: in vivo, Echinochloa crus-galli; settings: 320 g/ha, scored visually after 3 weeks vs untreated controls
Summary of the method: as §2

LOLRI [7] = experiment: Pre-emergence herbicidal action against LOLRI (Table 8, titled post-emergence at 320 g/ha); assay type: in vivo, Lolium rigidum; settings: table stands in the pre-emergence section
Summary of the method: as §2

MATIN = experiment: Pre-emergence herbicidal action against MATIN; assay type: in vivo; settings: 320 g/ha
Summary of the method: as §2

LOLRI [8] = experiment: Post-emergence herbicidal action against LOLRI; assay type: in vivo, Lolium rigidum; settings: 80 g/ha, visual assessment about 3 weeks after treatment vs untreated controls
Summary of the method: as §1

SETVI [9] = experiment: Post-emergence herbicidal action against SETVI; assay type: in vivo, Setaria viridis; settings: 80 g/ha, visual assessment about 3 weeks after treatment vs untreated controls
Summary of the method: as §1

PHBPU = experiment: Pre-emergence herbicidal action against PHBPU; assay type: in vivo; settings: scored visually after 3 weeks, 100% = plants have died, 0% = like control plants
Excerpt: Seeds of monocotyledonous and dicotyledonous weed plants and crop plants are laid out in sandy loam soil in wood-fiber pots and covered with soil. The compounds of the invention, formulated in the form of wettable powders (WP) or as emulsion concentrates (EC), are then applied to the surface of the covering soil as aqueous suspension or emulsion at a water application rate equating to 600 to 800 L/ha with addition of 0.2% wetting agent.
After the treatment, the pots are placed in a greenhouse and kept under good growth conditions for the trial plants. The damage to the test plants is scored visually after a test period of 3 weeks by comparison with untreated controls (herbicidal activity in percent (%): 100% activity=the plants have died, 0% activity=like control plants).

SETVI [10] = experiment: Pre-emergence herbicidal action against SETVI; assay type: in vivo, Setaria viridis; settings: 320 g/ha, scored visually after 3 weeks vs untreated controls
Summary of the method: as §2

Compound: CC#Cc1cc(Br)c(C2=C(OC(=O)OCC)[C@]3(CC[C@H](COCC)C3)NC2=O)c(OC)c1 (stereo in doubt) [Example P-13, [3-(2-Bromo-6-methoxy-4-prop-1-ynyl-phenyl)-8-(ethoxymethyl)-2-oxo-1-azaspiro[4.4]non-3-en-4-yl] ethyl carbonate]
- Post-emergence action against DIGSA in % (DIGSA [1]): 100%
- Pre-emergence action against DIGSA in % (DIGSA [2]): 100%
- Post-emergence action against ABUTH in % (ABUTH): 80%
- Pre-emergence action against POLCO in % (POLCO): 80%
- Pre-emergence action against ALOMY in % (ALOMY [3]): 100%
- Post-emergence action against ECHCG in % (ECHCG [4]): 100%
- Pre-emergence action against AVEFA in % (AVEFA): 100%
- Pre-emergence action against VIOTR in % (VIOTR): 100%
- Pre-emergence action against AMARE in % (AMARE): 90%
- Post-emergence action against ALOMY in % (ALOMY [5]): 100%
- Pre-emergence action against ECHCG in % (ECHCG [6]): 100%
- Pre-emergence herbicidal action against LOLRI in % (LOLRI [7]): 100%
- Pre-emergence action against MATIN in % (MATIN): 80%
- Post-emergence action against LOLRI in % (LOLRI [8]): 100%
- Post-emergence action against SETVI in % (SETVI [9]): 100%
- Pre-emergence action at 320 g/ha against PHBPU in % (PHBPU): 100%
- Pre-emergence action against SETVI in % (SETVI [10]): 100%
